Laboratory results taken from patent US9850216B2 (H. LEE MOFFITT CANCER CENTER AND RESEARCH INSTITUTE, INC., priority 2013, dated 2017).
Where “and” joins values, the source holds several entries; their conditions need not be identical. Identical values can stand only once. Like-named read-outs stand apart in the source and are kept apart here.

Legend:
ACK1 [1] = molecular target: T1, ACK1 (Homo sapiens, UniProt Q07912); test: EGF-induced ACK1 autophosphorylation (Tyr284) in LAPC4 cells, immunoblotting; format: cell-based; design: endogenous in cells; host or cells: LAPC4; settings: pretreated with compound, 5 μM (FIG. 8(a))
T1 sequence (Q07912 whole entry): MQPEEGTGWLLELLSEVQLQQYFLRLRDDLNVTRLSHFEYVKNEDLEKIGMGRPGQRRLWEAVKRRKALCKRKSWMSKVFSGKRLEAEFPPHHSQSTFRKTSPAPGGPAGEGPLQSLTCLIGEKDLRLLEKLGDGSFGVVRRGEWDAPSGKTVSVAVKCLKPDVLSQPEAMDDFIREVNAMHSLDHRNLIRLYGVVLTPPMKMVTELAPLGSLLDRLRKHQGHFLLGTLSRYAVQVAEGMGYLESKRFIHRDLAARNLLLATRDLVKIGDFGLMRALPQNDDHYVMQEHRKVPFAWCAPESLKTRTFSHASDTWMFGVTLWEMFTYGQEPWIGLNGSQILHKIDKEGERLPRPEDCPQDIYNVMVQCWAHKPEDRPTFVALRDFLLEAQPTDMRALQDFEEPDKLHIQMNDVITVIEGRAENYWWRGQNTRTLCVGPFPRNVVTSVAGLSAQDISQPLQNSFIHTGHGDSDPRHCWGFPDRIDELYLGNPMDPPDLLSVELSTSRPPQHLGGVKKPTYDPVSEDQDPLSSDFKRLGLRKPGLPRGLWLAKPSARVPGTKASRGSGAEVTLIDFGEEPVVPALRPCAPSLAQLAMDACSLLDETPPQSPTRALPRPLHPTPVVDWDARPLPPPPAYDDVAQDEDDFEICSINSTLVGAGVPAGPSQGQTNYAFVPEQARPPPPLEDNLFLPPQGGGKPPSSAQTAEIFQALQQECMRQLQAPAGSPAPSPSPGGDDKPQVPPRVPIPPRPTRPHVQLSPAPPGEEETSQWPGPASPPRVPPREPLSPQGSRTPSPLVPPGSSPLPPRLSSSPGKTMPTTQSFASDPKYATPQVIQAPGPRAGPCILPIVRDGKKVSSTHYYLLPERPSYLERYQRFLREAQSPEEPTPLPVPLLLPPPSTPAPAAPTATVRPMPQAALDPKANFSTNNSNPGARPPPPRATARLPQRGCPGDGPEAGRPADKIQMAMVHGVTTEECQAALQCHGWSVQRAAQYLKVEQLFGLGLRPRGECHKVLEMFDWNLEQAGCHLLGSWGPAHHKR
Procedure: Inhibition of: LNCaP (FIG. 8(b)); LAPC4 (FIG. 8(c)), and VCaP (FIG. 8(d)) cell growth by AIM-100, (R)-9b, and (S)-9b. Inhibition of ACK1 autophosphorylation in LAPC4 cells treated 5 μM with (R)-9b and (S)-9b (FIG. 8(a)).
ACK1 is a tyrosine kinase that auto-phosphorylates at Tyr284, which is indicative of its kinase activation. To determine inhibitory potential of the compounds from library 9, prostate cancer derived cell line LAPC4 was treated with either EGF ligand alone or added to cells pretreated with the compounds, and equal amounts of cell lysates were subjected to immunoblotting. EGF (epidermal growth factor) ligand causes rapid activation of EGFR (epidermal growth factor receptor), which in turn lead to activation of the ACK1 kinase (FIG. 8(a), lane 2, top panel). […] Actin was used as control, which indicates equal loading of cell lysates (FIG. 8(a), lower panel).

AR [2] = test: AR mRNA by real time PCR in androgen-deprived prostate cancer cells; format: cell-based, human; settings: overnight treatment (FIG. 3a, b)
Excerpt: Total RNA was isolated followed by qPCR with AR primers. VCaP, *p=0.022; LNCaP, *p=0.042, **p=0.047. […] Total RNA was isolated followed by qPCR with PSA primers.

pY88-H4 = test: Endogenous H4 Y88-phosphorylation in LNCaP cells; format: cell-based, human; settings: 16 hrs (FIG. 5b)
Procedure: (§1) In FIG. 5(a), equimolar amounts of purified ACK1 and H4 proteins were incubated in the presence of DZ1-067 (100 nM) and reaction subjected to immunoblotting with pY88-H4 antibodies. […] The nuclear lysates were immunoprecipitated with pY88-H4 antibodies followed by immunoblotting with H4. Lower panel is input lysate.

AR [3] = test: AR protein levels in androgen-deprived prostate cancer cells, immunoblotting; format: cell-based, human; settings: immunoblotting (FIG. 2)
Procedure: Transcriptional regulation of the AR gene itself is a paradigm that merits thorough investigation. […] Whether AR utilizes ACK1 to facilitate its transcriptional co-activator function is not known. […] Cells were also treated with ACK1-specific small molecule inhibitors, DZ1-067 or AIM-100.

[4] = test system: cell line which is dependent upon ACK1; settings: literature; read-out: IC50, growth of a cell line dependent upon ACK1; cited from earlier work
[5] = attributed to oxidation of dithiolane ring and NMe2; literature; cited from earlier work
PSA = PSA mRNA by real time PCR in androgen-deprived prostate cancer cells; format: cell-based, human; settings: overnight treatment (FIG. 3c, d)
Excerpt: Total RNA was isolated followed by qPCR with AR primers. […] Total RNA was isolated followed by qPCR with PSA primers.

[6] = metastatic CRPC; literature; cited from earlier work
ACK1 [7] = molecular target: T1, ACK1; settings: literature; read-out: IC50, inhibition of ACK1 autophosphorylation in intact cells; cited from earlier work
ACK1 [8] = molecular target: T1, ACK1; test: 32P Hotspot assay (Reaction Biology), ACK1 IC50; format: biochemical
Procedure: (§2) 8 compounds were tested against […], ACK1, Src and ALK in various combinations. […] Reactions were carried out at 10 μM ATP.

ACK1 [9] = molecular target: T1, ACK1; test: ACK1 ELISA: phosphorylation of AKT-derived peptide; format: biochemical; settings: 10 μM
LAPC4 cells = test: Cell growth, LAPC4; format: cell-based, human
Excerpt: Selected compounds from the library 9 were chosen to evaluate the effects of ACK1 inhibition in LAPC4 human prostate cancer cells with inhibition of cell growth as a read out. […] Based on the findings from cell culture data, enantiomers of 9b were synthesized to understand the ACK1 inhibitory activities of individual stereoisomers. […] The synthesis of (R)-9b and (S)-9b are shown in the Scheme 4 and other examples of enantiomerically pure compounds (not reported here) were also synthesized using the protocols in the Scheme 4.
(§3) Three distinct human prostate cancer derived cell lines, LNCaP, LAPC4 and VCaP were either DMSO treated or treated with 1, 2.5, 5, 7.5 and 10 μM of inhibitors, AIM-100, (R)-9b and (S)-9b for 36 hrs and the number of viable cells were counted by trypan blue exclusion assay.

ALK = ALK (Homo sapiens, UniProt Q9UM73); test: Kinase IC50 profiling, ALK; format: biochemical; settings: Table 4; 10-dose; 10 μM ATP; read-out: Compound IC50 (M), ALK
Chain of ALK (Q9UM73 19-1620): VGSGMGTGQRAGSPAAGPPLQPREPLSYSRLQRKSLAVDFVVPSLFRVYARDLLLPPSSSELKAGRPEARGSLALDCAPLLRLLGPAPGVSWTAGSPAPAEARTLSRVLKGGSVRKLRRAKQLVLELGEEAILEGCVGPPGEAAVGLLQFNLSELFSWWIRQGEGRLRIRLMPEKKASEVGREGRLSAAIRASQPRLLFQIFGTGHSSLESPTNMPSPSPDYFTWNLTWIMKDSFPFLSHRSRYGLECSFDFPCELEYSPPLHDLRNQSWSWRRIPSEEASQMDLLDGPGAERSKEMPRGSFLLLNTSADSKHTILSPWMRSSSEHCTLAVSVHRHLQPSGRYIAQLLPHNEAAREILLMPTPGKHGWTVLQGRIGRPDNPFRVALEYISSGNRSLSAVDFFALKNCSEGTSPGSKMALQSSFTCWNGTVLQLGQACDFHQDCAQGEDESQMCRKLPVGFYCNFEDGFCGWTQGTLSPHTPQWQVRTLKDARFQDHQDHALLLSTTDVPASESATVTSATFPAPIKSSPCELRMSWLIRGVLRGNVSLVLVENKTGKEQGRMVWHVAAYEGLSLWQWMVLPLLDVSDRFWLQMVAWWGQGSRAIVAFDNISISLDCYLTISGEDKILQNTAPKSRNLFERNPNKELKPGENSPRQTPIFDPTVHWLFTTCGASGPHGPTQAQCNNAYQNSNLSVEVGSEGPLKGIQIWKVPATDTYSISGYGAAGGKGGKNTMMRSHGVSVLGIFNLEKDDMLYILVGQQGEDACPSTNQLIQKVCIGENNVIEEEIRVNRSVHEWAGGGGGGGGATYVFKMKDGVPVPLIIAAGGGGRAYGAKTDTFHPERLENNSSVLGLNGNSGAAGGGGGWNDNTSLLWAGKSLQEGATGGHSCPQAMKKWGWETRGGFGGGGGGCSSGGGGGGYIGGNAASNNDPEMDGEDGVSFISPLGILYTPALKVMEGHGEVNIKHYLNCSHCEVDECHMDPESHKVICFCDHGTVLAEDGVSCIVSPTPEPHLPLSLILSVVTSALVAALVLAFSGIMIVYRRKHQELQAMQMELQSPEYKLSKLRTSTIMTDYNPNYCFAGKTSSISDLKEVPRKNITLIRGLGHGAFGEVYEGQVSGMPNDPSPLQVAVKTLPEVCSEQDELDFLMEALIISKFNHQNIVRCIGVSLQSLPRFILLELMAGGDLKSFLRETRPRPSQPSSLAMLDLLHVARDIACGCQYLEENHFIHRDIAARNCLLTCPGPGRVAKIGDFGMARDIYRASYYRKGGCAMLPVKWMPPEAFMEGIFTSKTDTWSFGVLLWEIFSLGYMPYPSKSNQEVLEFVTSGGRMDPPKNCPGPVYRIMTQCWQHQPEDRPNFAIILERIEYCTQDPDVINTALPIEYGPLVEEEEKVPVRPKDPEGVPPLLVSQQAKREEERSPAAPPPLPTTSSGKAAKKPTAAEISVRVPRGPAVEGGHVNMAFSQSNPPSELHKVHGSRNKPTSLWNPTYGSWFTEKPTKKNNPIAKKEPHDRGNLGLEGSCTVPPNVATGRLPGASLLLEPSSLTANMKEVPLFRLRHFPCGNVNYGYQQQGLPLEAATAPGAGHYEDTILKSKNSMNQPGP
Procedure: as §2

ACK1 [10] = molecular target: T1, ACK1; test: In vitro kinase assay, purified ACK1 and histone H4, pY88-H4 immunoblotting; format: biochemical; design: made in house; host or cells: insect cells; settings: DZ1-067 100 nM (FIG. 5a)
Procedure: as §1
To assess direct binding of ACK1 to H4, in vitro kinase assay was performed using purified ACK1 and H4 (New England Biolabs). Human ACK1 was expressed in insect cells and purified to homogeneity. Immunoblotting with pY88-H4 and pTyr antibodies confirmed that indeed H4 is directly Tyr-phosphorylated by ACK1 (FIG. 5a).

LNCaP cells = test: Cell proliferation, trypan blue exclusion, LNCaP; format: cell-based, human; settings: 36 hrs, viable cells by trypan blue exclusion, read-out: IC50, inhibition of cell growth in LNCaP cells
Procedure: (§4) The number of viable cells was counted by trypan blue exclusion assay.
as §3
(§5) The ability of the ACK1 inhibitors to suppress proliferation of prostate cancer cell lines were also assessed. AIM-100, an ACK1 inhibitor, originally screened by Amgen was used as a control. […] Overall, it appears that ACK1 is needed for androgen-independent growth of prostate cancer cells.

[11] = test system: AR and H3K4me3 at intron 2 of AR gene; test: ChIP-qPCR of AR and H3K4me3 at intron 2 of AR gene; format: cell-based, human; settings: absence of androgen (FIG. 7)
Procedure: LNCaP cells treated with DZ1-067 and ChIP was performed using AR, H3K4me3, or IgG antibodies followed by qPCR using primers corresponding to intron 2, or control region. *p<0.05, **p<0.05, ***p<0.05, ****p<0.05.
To determine the functional and physiological relevance of pY88-H4/WDR5 interaction, and given the interaction of AR with MLL associated complex (Grasso C S, et al. The mutational landscape of lethal castration-resistant prostate cancer. Nature. 2012; 487(7406):239-43). ChIP experiments were performed to determine AR and H3K4me3 levels at the intron 2.

pY88-H4 marks in AR gene = test: ChIP-qPCR of pY88-H4 marks at the AR gene; format: cell-based, human; settings: cells grown in absence of androgen (FIG. 6)
Procedure: In FIG. 6(a), the human AR gene and two pY88-H4 binding sites are shown. […] VCaP: *p<0.05, **p<0.05; LNCaP: *p<0.05, **p<0.05
To determine whether ACK1 modifies chromatin at AR gene locus, LNCaP and LAPC4 cells grown in the absence of androgen and were treated with DZ1-067. Chromatin immunoprecipitation (ChIP) was performed using pY88-H4 antibodies, followed by real time PCR with primers corresponding to the AR promoter, intron 2 and 3′UTR (FIG. 6a). […] These marks were also deposited at 3′UTR of the AR gene but not at the promoter region (FIG. 6b, c).

c-Src = c-Src (Homo sapiens, UniProt P12931); test: Kinase IC50 profiling, c-Src; format: biochemical; settings: Table 3; 10-dose; 10 μM ATP; read-out: Compound IC50* (M): c-Src
Chain of c-Src (P12931 whole entry): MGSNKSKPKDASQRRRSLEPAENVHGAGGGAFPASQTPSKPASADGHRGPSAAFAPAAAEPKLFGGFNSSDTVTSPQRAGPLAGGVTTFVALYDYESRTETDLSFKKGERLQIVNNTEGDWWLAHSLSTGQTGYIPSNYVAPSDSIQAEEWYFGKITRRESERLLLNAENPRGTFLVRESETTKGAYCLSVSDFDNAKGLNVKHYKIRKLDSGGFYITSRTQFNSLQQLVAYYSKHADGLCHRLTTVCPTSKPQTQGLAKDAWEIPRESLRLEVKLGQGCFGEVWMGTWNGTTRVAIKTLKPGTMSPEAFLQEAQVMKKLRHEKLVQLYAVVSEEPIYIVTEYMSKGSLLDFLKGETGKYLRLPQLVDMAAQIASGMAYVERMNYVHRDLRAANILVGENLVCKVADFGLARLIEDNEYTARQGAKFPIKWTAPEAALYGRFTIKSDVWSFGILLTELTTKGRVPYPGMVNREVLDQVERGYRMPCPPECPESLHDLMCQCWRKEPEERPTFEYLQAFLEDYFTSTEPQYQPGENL
Procedure: as §2

VCaP cells = test: Cell proliferation, trypan blue exclusion, VCaP; format: cell-based, human; settings: 36 hrs, viable cells by trypan blue exclusion, read-out: IC50, inhibition of cell growth in VCaP cells
Procedure: as §4, §3, §5

prostate xenograft tumor = settings: literature; cited from earlier work
[12] = Table 1, unit inferred, (RB) = Reaction Biology, replicates listed, read-out: IC50
[13] = Table 4, 10-dose, 10 μM ATP, read-out: Compound IC50 (M), ACK1
[14] = Table 1, replicate values listed
[15] = Table 1, replicate values listed, read-out: % Inhibition at 10 μM (ELISA)

**Q.** For `COc1cc(N2CCC(N3CCN(C)CC3)CC2)ccc1Nc1ncc(Cl)c(Nc2ccccc2S(=O)(=O)C(C)C)n1` [TAE684], which “ACK1 activation (autophosphorylation) in EGF-treated LAPC4 cells” value (ACK1 [1]) is on record?
**A.** significant reduction in ACK1 activation

**Q.** For `C[C@]12CCC(=O)C[C@@H]1CC[C@@H]1[C@@H]2CC[C@]2(C)[C@@H](O)CC[C@@H]12` [DHT], which “AR mRNA levels” value (AR [2]) is on record?
**A.** no significant change

**Q.** And the “endogenous pY88-phosphorylation of H4 in LNCaP cells” value (pY88-H4)?
**A.** unaffected

**Q.** What about the AR protein levels (AR [3]) of the same molecule?
**A.** increased AR levels

**Q.** With `CN(C)CCOc1ccc(-c2oc3ncnc(NCC4SCCS4)c3c2-c2ccccc2)cc1` [Compound 1c] as the molecule, how does the IC50 [4] read?
**A.** 5 nM

**Q.** And the pharmacokinetic properties [5]?
**A.** poor pharmacokinetic properties

**Q.** Which “PSA mRNA levels” value (PSA) does the source give for `CNC(=O)c1ccc(N2C(=S)N(c3ccc(C#N)c(C(F)(F)F)c3)C(=O)C2(C)C)cc1F` [Enzalutamide] here?
**A.** significantly suppressed PSA mRNA levels

**Q.** What about the “AR mRNA levels” value (AR [2]) of the same molecule?
**A.** no significant change

**Q.** And the “CRPC patients in whom effective” value [6]?
**A.** 12 out of 30

**Q.** And the overall survival advantage [6]?
**A.** 4-6 months

**Q.** And the “endogenous pY88-phosphorylation of H4 in LNCaP cells” value (pY88-H4)?
**A.** unaffected

**Q.** With `COC(C)(C)CCn1nc(Nc2c(C)cccc2C)c2cnc(Nc3ccccc3)nc21` [Compound 2] as the molecule, how does the IC50 (ACK1 [7]) read?
**A.** 20 nM

**Q.** Which results are given for `O=C(Nc1c(F)cccc1Cl)c1cnc(Nc2ccc(N3CCOCC3)cc2)nc1NCC1CCCO1` (centres unmarked) [Compound 9n]?
**A.** IC50 (ACK1 [8]; Table 2, read-out: IC50 (32P Hotspot assay)): 4.77e-08 M; inhibition at 10 µM (ACK1 [9]; Table 2, library 9, read-out: % Inhibition @ 10 μM (ELISA)): 82 ± 7.7%; cellular potency, ACK1 inhibition in LAPC4 cells with cell growth as read out (LAPC4 cells): did not display the expected cellular potency

**Q.** With `CC(O)(CS(=O)(=O)c1ccc(F)cc1)C(=O)Nc1ccc(C#N)c(C(F)(F)F)c1` (centres unmarked) [Casodex] as the molecule, how does the “PSA mRNA levels” value (PSA) read?
**A.** significantly suppressed PSA mRNA levels

**Q.** And the “AR mRNA levels” value (AR [2])?
**A.** no significant change

**Q.** Which results are given for `CN1CCN(c2ccc(Nc3ncc(Cl)c(NC[C@H]4CCCO4)n3)cc2)CC1` [DZ1-067, (R)-5-chloro-N2-(4-(4-methylpiperazin-1-yl)phenyl)-N4-((tetrahydrofuran-2-yl)methyl)pyrimidine-2,4-diamine]?
**A.** IC50 (ALK): 1.43e-07 M; H4 Tyr-phosphorylation by purified ACK1 (ACK1 [10]): abrogated; AR mRNA levels (AR [2]): significantly suppressed; IC50 (ACK1 [8]; [12]): 5.6e-08 M and 5.78e-08 M and 6.05e-08 M; IC50 (ACK1 [8]; Table 3, 10-dose, 3-fold dilution from 10 μM, 10 μM ATP, read-out: Compound IC50* (M): ACK1): 6.05e-08 M; IC50 (ACK1 [8]; [13]): 5.78e-08 M; IC50 (LNCaP cells; Homo sapiens, LNCaP): 1800 nM; % Inhibition at 10 μM (ELISA) (ACK1 [9]; [14]): 91%; inhibition at 10 µM (ACK1 [9]; [15]): 93%; AR and H3K4me3 methyl marks at intron 2 (ChIP) [11]: abolished; endogenous pY88-phosphorylation of H4 in LNCaP cells (pY88-H4): eliminated; pY88-H4 epigenetic marks in AR gene (ChIP) (pY88-H4 marks in AR gene): erased; AR protein levels (AR [3]): significant downregulation the AR protein; IC50 (c-Src): 4.38e-07 M; IC50 (VCaP cells; Homo sapiens, VCaP): 2000 nM

**Q.** Which “ACK1 activation (autophosphorylation) in EGF-treated LAPC4 cells” value (ACK1 [1]) does the source give for `c1ccc(-c2oc3ncnc(NC[C@@H]4CCCO4)c3c2-c2ccccc2)cc1` [AIM-100] here?
**A.** significant reduction in ACK1 activation

**Q.** And the IC50 (LNCaP cells)?
**A.** 7000 nM

**Q.** What about the “castration and radioresistant prostate xenograft tumor growth” value (prostate xenograft tumor) of the same molecule?
**A.** inhibits

**Q.** What about the AR protein levels (AR [3]) of the same molecule?
**A.** concomitant decrease in AR protein levels

**Q.** What about the IC50 (VCaP cells) of the same molecule?
**A.** 4000 nM

**Q.** Which IC50 (ALK) does the source give for `CN1CCN(c2ccc(Nc3ncc(Cl)c(NC[C@@H]4CCCO4)n3)cc2)CC1` [DZ1-077, (S)-5-chloro-N2-(4-(4-methylpiperazin-1-yl)phenyl)-N4-((tetrahydrofuran-2-yl)methyl)pyrimidine-2,4-diamine] here?
**A.** 2.96e-07 M

**Q.** What about the IC50 (ACK1 [8]; [12]) of the same molecule?
**A.** 8.05e-08 M and 8.33e-08 M

**Q.** And the IC50 (ACK1 [8]; [13])?
**A.** 8.33e-08 M

**Q.** What about the IC50 (LNCaP cells; Homo sapiens, LNCaP) of the same molecule?
**A.** 1800 nM

**Q.** And the “% Inhibition at 10 μM (ELISA)” value (ACK1 [9]; [14])?
**A.** 94%

**Q.** What about the inhibition at 10 µM (ACK1 [9]; [15]) of the same molecule?
**A.** 93%

**Q.** And the IC50 (VCaP cells; Homo sapiens, VCaP)?
**A.** 4000 nM
